Measurements from patent US12391687B2, “Five-and-six-membered heterocyclic compound and use thereof as protein receptor kinase inhibitor” (SHANGHAI ENNOVABIO PHARMACEUTICALS CO., LTD., priority 2018, dated 2025).

How the values were obtained:
Format in all cases: biochemical
[1] = molecular target: Recombinant human TRKA (Homo sapiens (Human), UniProt P04629); assay: In vitro activity test on TRKA kinase (HTRF kinEASE TK); conditions: 14.68 μM ATP, 40 min, room temperature
Protocol: (§1) Recombinant human TRKA, TRKB, TRKC proteins were purchased from Carna Biosciences. HTRF kinEASE TK kit was purchased from Cisbio Bioassays. Synergy Neo 2 of Biotek was used to read the plate.
(§2) The tested compounds were subjected to 3-fold serial dilution to reach a final concentration of 1 μM to 0.05 nM (10 concentrations), duplicates for each concentration; and the DMSO concentration in the detection reaction was 1%.
0.2 ng/μL TRKA protein kinase, 1 μM TK Substrate-biotin polypeptide substrate, 14.68 μM ATP, 1×enzymatic buffer, 5 mM MgCl2, and 1 mM DTT. The assay plate was White Proxiplate384-Plus plate (PerkinElmer), and the reaction was incubated at room temperature for 40 min, and the assay volume was 10 μL.
(§3) 10 μL of detection reagent (containing 0.125 μM SA-XL665 and 5 μL 1×TK-Antibody) was added to the plate and incubated overnight at room temperature. Synergy Neo 2 was used to read the plate.
(§4) The 665/620 Ratio was converted according to the following formula into inhibition rate (%)=(1−Ratiotest/Ratiomax)×100%. Ratiomax was the value of positive controls without tested compound, and Ratiotest was the value of each concentration of different compounds. IC50 (nM) data was obtained by 4 parameter curve fitting (see Table 1).

[2] = molecular target: Recombinant human TRKB (Homo sapiens (Human), UniProt Q16620); assay: In vitro activity test on TRKB kinase (HTRF kinEASE TK); conditions: 4.77 μM ATP, 50 min, room temperature
Chain of Recombinant human TRKB (Q16620 32-822): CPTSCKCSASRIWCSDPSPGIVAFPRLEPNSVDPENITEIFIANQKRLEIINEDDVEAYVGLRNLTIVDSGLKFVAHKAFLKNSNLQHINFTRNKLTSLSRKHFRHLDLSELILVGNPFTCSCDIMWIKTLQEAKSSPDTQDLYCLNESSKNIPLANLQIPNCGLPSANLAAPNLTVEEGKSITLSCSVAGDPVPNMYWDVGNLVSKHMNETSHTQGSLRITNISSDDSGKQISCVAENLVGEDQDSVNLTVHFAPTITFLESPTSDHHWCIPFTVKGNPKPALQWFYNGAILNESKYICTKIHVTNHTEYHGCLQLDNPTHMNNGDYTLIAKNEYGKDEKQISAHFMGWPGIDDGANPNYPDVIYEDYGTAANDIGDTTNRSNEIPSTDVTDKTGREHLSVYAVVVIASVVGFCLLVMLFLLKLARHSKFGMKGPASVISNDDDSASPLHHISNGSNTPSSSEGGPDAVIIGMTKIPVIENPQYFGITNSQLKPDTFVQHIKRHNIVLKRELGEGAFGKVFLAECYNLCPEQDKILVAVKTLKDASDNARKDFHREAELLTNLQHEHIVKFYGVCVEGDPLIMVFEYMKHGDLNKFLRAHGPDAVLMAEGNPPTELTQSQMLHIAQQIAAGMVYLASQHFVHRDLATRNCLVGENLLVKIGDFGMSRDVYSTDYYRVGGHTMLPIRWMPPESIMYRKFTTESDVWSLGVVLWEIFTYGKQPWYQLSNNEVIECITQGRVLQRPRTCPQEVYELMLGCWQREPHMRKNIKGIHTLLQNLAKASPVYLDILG
Protocol: as §1, §2
(§5) 0.037 ng/μL TRKB protein kinase, 1 μM TK Substrate-biotin polypeptide substrate, 4.77 μM ATP, 1× enzymatic buffer, 5 mM MgCl2, 1 mM MnCl2 and 1 mM DTT. The assay plate was White Proxiplate 384-Plus plate (PerkinElmer), the reaction was incubated at room temperature for 50 min, and the assay volume was 10 μL.
as §3, §4

[3] = molecular target: Recombinant human TRKC (Homo sapiens (Human), UniProt Q16288); assay: In vitro activity test on TRKC kinase (HTRF kinEASE TK); conditions: 25.64 μM ATP, 40 min, room temperature
Chain of Recombinant human TRKC (Q16288 32-839): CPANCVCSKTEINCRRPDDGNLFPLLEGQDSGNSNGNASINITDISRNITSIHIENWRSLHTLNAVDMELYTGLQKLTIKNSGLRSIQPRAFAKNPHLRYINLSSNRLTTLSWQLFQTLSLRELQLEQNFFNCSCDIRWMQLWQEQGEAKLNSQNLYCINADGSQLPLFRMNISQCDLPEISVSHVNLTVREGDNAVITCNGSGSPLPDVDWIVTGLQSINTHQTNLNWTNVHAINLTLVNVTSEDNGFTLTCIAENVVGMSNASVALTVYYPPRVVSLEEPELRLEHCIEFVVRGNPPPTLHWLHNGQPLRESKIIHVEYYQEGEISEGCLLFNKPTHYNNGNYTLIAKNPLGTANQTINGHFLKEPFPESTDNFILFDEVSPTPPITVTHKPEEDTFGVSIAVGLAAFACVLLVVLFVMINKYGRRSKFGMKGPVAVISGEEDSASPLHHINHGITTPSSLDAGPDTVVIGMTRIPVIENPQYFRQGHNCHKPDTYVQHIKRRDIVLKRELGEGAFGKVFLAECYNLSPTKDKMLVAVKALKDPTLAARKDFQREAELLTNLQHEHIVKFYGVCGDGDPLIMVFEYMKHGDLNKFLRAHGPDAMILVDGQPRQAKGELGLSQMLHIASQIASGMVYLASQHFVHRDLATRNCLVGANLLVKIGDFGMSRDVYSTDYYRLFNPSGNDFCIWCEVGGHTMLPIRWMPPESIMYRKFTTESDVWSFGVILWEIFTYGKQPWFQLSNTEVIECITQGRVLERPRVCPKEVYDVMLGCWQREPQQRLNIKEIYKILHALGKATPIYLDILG
Protocol: as §1, §2
as §5, with “ng/μL TRKC” for “ng/μL TRKB”, “substrate, 25.64” for “substrate, 4.77”, “MgCl2,” for “MgCl2, 1 mM MnCl2”, “The detection” for “The assay”, “for 40” for “for 50”
as §3, §4

[4] = molecular target: recombinant human TRKA (G595R) (Homo sapiens (Human), UniProt P04629, G595R); assay: In vitro activity test on mutant TRKA (G595R) (HTRF kinEASE TK); conditions: 4.5 μM ATP, 30 min, room temperature; read-out: TRKA (G595R) IC 50
Chain of recombinant human TRKA (G595R) (P04629 33-796 G595R): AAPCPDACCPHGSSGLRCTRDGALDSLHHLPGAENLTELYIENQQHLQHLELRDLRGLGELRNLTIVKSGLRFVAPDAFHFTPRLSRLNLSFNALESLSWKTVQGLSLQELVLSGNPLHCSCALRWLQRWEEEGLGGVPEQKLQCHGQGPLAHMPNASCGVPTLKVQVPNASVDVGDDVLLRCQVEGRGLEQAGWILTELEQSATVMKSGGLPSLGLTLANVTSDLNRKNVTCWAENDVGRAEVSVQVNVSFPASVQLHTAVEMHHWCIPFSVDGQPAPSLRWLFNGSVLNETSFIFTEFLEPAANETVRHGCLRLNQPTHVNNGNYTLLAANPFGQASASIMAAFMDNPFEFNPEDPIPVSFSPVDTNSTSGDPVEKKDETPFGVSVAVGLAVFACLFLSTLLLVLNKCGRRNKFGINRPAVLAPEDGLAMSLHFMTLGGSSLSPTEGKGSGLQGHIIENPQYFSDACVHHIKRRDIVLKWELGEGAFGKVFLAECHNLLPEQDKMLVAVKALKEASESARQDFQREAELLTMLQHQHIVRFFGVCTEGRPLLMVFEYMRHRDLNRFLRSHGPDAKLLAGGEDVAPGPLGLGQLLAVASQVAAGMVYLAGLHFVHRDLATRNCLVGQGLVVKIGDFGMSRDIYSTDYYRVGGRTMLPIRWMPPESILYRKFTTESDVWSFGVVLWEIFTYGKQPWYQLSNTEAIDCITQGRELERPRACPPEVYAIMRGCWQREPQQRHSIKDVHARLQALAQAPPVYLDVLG
Protocol: The recombinant human TRKA (G595R), TRKA (G667C) and TRKC (G623R) proteins were purchased from SignalChem. HTRF kinEASE TK kit was purchased from Cisbio Bioassays. Synergy Neo 2 of Biotek was used to read the plate.
The tested compounds were subjected to 4-fold serial dilution to reach a final concentration of 1 μM to 0.004 nM (10 concentrates), duplicates for each concentration; and the final concentration of DMSO in the reaction was 1%.
0.12 ng/μL TRKA (G595R) kinase, 1 μM TK Substrate-biotin polypeptide substrate, 4.5 μM ATP, 1× enzymatic buffer, 5 mM MgCl2, and 1 mM DTT. The assay plate was White Proxiplate384-Plus plate (PerkinElmer), and the reaction was incubated at room temperature for 30 min, and the assay volume was 10 μL.
10 μL of detection reagent (containing 0.125 μM SA-XL665 and 5 μL 1×TK-Antibody) was added to the plate and incubated overnight at room temperature, and Synergy Neo 2 was used to read the plate.
The value of 665/620 Ratio minus the value of negative control wells without enzyme, then the obtained value was converted according to the following formula into inhibition rate (%)=(1−Ratiotest/Ratiomax)×100%. Ratiomax was the value of positive controls without tested compound, and Ratiotest was the value of each concentration of different compounds. IC50 (nM) data was obtained by 4 parameter curve fitting (see Table 3).

Chain of Recombinant human TRKA (P04629 33-796): as the sequence (P04629 33-796 G595R) above, with R563G counted along it

| Compound | IC50 [1] [nM] | IC50 [2] [nM] | IC50 [3] [nM] | IC50 [4] [nM] |
| --- | --- | --- | --- | --- |
| O=C(Nc1cnc2[nH]nc(N3CCC[C@@H]3c3cc(F)ccc3F)c2c1)N1CC[C@H](O)C1 [Example 2, (S)—N-(3-((R)-2-(2,5-difluorophenyl)pyrrolidin-1-yl)-1H-pyrazolo[3,4-b]pyridin-5-yl)-3-hydroxypyrrolidine-1-carboxamide] | < 500 | < 500 | < 500 | – |
| O=C(Nc1cnc2[nH]nc(N3CCC[C@@H]3c3cc(F)ccc3F)c2c1)c1ccc(N2CC[C@H](O)C2)nc1 [Example 3, N-(3-((R)-2-(2,5-difluorophenyl)pyrrolidin-1-yl)-1H-pyrazolo[3,4-b]pyridin-5-yl)-6-((S)-3-hydroxypyrrolidin-1-yl)nicotinamide] | < 50 | < 100 | < 50 | – |
| NC(=O)c1cnc2[nH]nc(N3CCC[C@@H]3c3cc(F)ccc3F)c2c1 [Example 4, (R)-3-(2-(2,5-difluorophenyl)pyrrolidin-1-yl)-1H-pyrazolo[3,4-b]pyridine-5-carboxamide] | < 10 | < 10 | < 10 | – |
| COCCNC(=O)c1cnc2[nH]nc(N3CCC[C@@H]3c3cc(F)ccc3F)c2c1 [Example 8, (R)-3-(2-(2,5-difluorophenyl)pyrrolidin-1-yl)-N-(2-methoxyethyl)-1H-pyrazolo[3,4-b]pyridine-5-carboxamide] | < 50 | < 10 | < 10 | – |
| CC(C)(O)CNC(=O)c1cnc2[nH]nc(N3CCC[C@@H]3c3cc(F)ccc3F)c2c1 [Example 10, (R)-3-(2-(2,5-difluorophenyl)pyrrolidin-1-yl)-N-(2-hydroxy-2-methylpropyl)-1H-pyrazolo[3,4-b]pyridine-5-carboxamide] | < 50 | < 10 | < 10 | – |
| O=C(N[C@H]1CC[C@@H](O)CC1)c1cnc2[nH]nc(N3CCC[C@@H]3c3cc(F)ccc3F)c2c1 [Example 14, 3-((R)-2-(2,5-difluorophenyl)pyrrolidin-1-yl)-N-((1s,4S)-4-hydroxycyclohexyl)-1H-pyrazolo[3,4-b]pyridine-5-carboxamide] | < 10 | < 10 | < 10 | – |
| CC1(O)CCN(c2cnc(C(=O)Nc3cnc4[nH]nc(N5C[C@@H](F)C[C@@H]5c5cc(F)ccc5F)c4c3)cn2)C1 (stereo partly drawn) [Example 16, N-(3-((2R,4S)-2-(2,5-difluorophenyl)-4-fluoropyrrolidin-1-yl)-1H-pyrazolo[3,4-b]pyridin-5-yl)-5-(3-hydroxy-3-methylpyrrolidin-1-yl)pyrazine-2-carboxamide] | < 1 | < 10 | < 10 | – |
| O=C(O)c1cnc2[nH]nc(N3C[C@@H](F)C[C@@H]3c3cc(F)ccc3F)c2c1 [Example 17, 3-((2R,4S)-2-(2,5-difluorophenyl)-4-fluoropyrrolidin-1-yl)-1H-pyrazolo[3,4-b]pyridine-5-carboxylic acid] | < 1 | < 1 | < 1 | < 10 |
| CC(C)OC(=O)c1cnc2[nH]nc(N3C[C@@H](F)C[C@@H]3c3cc(F)ccc3F)c2c1 [Example 19, isopropyl 3-((2R,4S)-2-(2,5-difluorophenyl)-4-fluoropyrrolidin-1-yl)-1H-pyrazolo[3,4-b]pyridine-5-carboxylate] | < 1 | < 1 | < 1 | < 1 |
| Fc1ccc(F)c([C@H]2C[C@H](F)CN2c2n[nH]c3ncc(-c4nn[nH]n4)cc23)c1 [Example 21, 3-((2R,4S)-2-(2,5-difluorophenyl)-4-fluoropyrrolidin-1-yl)-5-(2H-tetrazol-5-yl)-1H-pyrazolo[3,4-b]pyridine] | < 1 | < 1 | < 1 | < 1 |
| O=C1CC(n2cc(-c3cnc4[nH]nc(N5C[C@@H](F)C[C@@H]5c5cc(F)ccc5F)c4c3)cn2)CCN1 (stereo partly drawn) [Example 23, 4-(4-(3-((2R,4S)-2-(2,5-difluorophenyl)-4-fluoropyrrolidin-1-yl)-1H-pyrazolo[3,4-b]pyridin-5-yl)-1H-pyrazol-1-yl)piperidin-2-one] | < 10 | < 10 | < 10 | – |
| CS(=O)(=O)n1cc(-c2cnc3[nH]nc(N4C[C@@H](F)C[C@@H]4c4cc(F)ccc4F)c3c2)cn1 [Example 27, 3-((2R,4S)-2-(2,5-difluorophenyl)-4-fluoropyrrolidin-1-yl)-5-(1-(methylsulfonyl)-1H-pyrazol-4-yl)-1H-pyrazolo[3,4-b]pyridine] | < 1 | < 1 | < 1 | < 1 |

Now from value to compound:

| IC50 [1] [nM] | IC50 [2] [nM] | IC50 [3] [nM] | IC50 [4] [nM] | Compound |
| --- | --- | --- | --- | --- |
| < 500 | < 500 | < 500 | – | CNC(=O)CC1(O)CCN(C(=O)Nc2cnc3[nH]nc(N4CCC[C@@H]4c4cc(F)ccc4F)c3c2)C1 (stereo partly drawn) [Example 1, N-(3-((R)-2-(2,5-difluorophenyl)pyrrolidin-1-yl)-1H-pyrazolo[3,4-b]pyridin-5-yl)-3-hydroxy-3-(2-(methylamino)-2-oxoethyl)pyrrolidine-1-carboxamide] |
| < 50 | < 50 | < 50 | – | O=C(NCCO)c1cnc2[nH]nc(N3CCC[C@@H]3c3cc(F)ccc3F)c2c1 [Example 6, (R)-3-(2-(2,5-difluorophenyl)pyrrolidin-1-yl)-N-(2-hydroxyethyl)-1H-pyrazolo[3,4-b]pyridine-5-carboxamide] |
| < 50 | < 10 | < 50 | – | O=C(NCCCO)c1cnc2[nH]nc(N3CCC[C@@H]3c3cc(F)ccc3F)c2c1 [Example 9, (R)-3-(2-(2,5-difluorophenyl)pyrrolidin-1-yl)-N-(3-hydroxypropyl)-1H-pyrazolo[3,4-b]pyridine-5-carboxamide] |
| < 10 | < 50 | < 10 | – | O=C(NCCCCO)c1cnc2[nH]nc(N3CCC[C@@H]3c3cc(F)ccc3F)c2c1 [Example 12, (R)-3-(2-(2,5-difluorophenyl)pyrrolidin-1-yl)-N-(4-hydroxybutyl)-1H-pyrazolo[3,4-b]pyridine-5-carboxamide] |
| < 1 | < 1 | < 1 | < 1 | COC(=O)c1cnc2[nH]nc(N3C[C@@H](F)C[C@@H]3c3cc(F)ccc3F)c2c1 [Example 13, Methyl 3-((2R,4S)-2-(2,5-difluorophenyl)-4-fluoropyrrolidin-1-yl)-1H-pyrazolo[3,4-b]pyridine-5-carboxylate] |
| < 500 | < 500 | < 500 | – | CN(C)C(=O)c1cnc2[nH]nc(N3C[C@@H](F)C[C@@H]3c3cc(F)ccc3F)c2c1 [Example 18, 3-((2R,4S)-2-(2,5-difluorophenyl)-4-fluoropyrrolidin-1-yl)-N,N-dimethyl-1H-pyrazolo[3,4-b]pyridine-5-carboxamide] |
| < 100 | < 10 | < 100 | – | COCc1nnc(-c2cnc3c(c2)c(N2C[C@@H](F)C[C@@H]2c2cc(F)ccc2F)nn3COC)o1 [Example 38, 2-(3-((2R,4S)-2-(2,5-difluorophenyl)-4-fluoropyrrolidin-1-yl)-1-(methoxymethyl)-1H-pyrazolo[3,4-b]pyridin-5-yl)-5-(methoxymethyl)-1,3,4-oxadiazole] |
| < 1 | < 1 | < 1 | – | NNC(=O)c1cnc2[nH]nc(N3C[C@@H](F)C[C@@H]3c3cc(F)ccc3F)c2c1 [Example 39, 3-((2R,4S)-2-(2,5-difluorophenyl)-4-fluoropyrrolidin-1-yl)-1H-pyrazolo[3,4-b]pyridine-5-carbohydrazide] |
